Measured values taken from paper PMC6803859, “Structural Basis for the Regulation of PPARγ Activity by Imatinib” (Molecules, 2019).
Positions count from the first letter of the chain named.

Experiments:
[1] = biological target: T1, PPARγ WT LBD (Homo sapiens, UniProt P37231); test: SPR (Biacore T200, immobilized LBD); format: binding
T1 construct: gene PPARG; LBD, residues 195–477 in PPARγ1 numbering
T1 sequence (P37231 223-505): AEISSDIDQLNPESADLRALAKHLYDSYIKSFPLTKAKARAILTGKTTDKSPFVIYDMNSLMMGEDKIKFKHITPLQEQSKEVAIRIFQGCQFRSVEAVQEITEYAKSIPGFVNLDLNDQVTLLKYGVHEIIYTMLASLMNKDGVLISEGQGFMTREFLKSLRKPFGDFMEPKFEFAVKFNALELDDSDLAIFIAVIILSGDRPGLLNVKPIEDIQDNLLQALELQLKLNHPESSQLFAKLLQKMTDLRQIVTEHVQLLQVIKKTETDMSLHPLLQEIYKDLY

[2] = biological target: T2, PPARγ R288A mutant LBD (Homo sapiens, UniProt P37231, R316A); test: ([…] Å) and SPR (Biacore T200); format: binding
T2 construct: gene PPARG; LBD, residues 195–477 in PPARγ1 numbering
T2 sequence (P37231 223-505 R316A): T1 sequence (P37231 223-505) with R94A

Kd [1]: 231 nM
Kd [2]: 152 nM
Structure (SMILES): Cc1ccc(NC(=O)c2ccc(CN3CCN(C)CC3)cc2)cc1Nc1nccc(-c2cccnc2)n1 [imatinib]
